Where only a bound is given, the exact number is not on record here.

One data set concerns HeLa. Nature of the data set: Neutral red uptake assay on HeLa. The conditions noted are these: Homo sapiens, 72 h treatment. The data set is classed as cell-based. On the procedure:
(§1) Based on the results obtained for the RPTEC cell line, the following concentrations of 4b–d were chosen to be applied to neoplastic cell lines: 0.1, 1, 10, 25, 50, and 100 µM. A172, AGS, CaCo-2, HeLa, and HepG2 cancer cell lines were used to perform a neutral red uptake assay. The obtained results were compared with a negative control (cell lines incubated without tested compounds), and half-maximal inhibitory concentration (IC50) values were calculated. Cell lines were plated in 96-well plates at a density of 1 × 10^4 cells/well. After 24 h incubation, which allowed the cells to attach and start to proliferate, the culture media were replaced with 4a–d dissolved in the appropriate medium at concentrations of 1, 10, 50, 100, 150 and 200 µM. […] Negative (1% DMSO in medium) and positive (1 µM staurosporine) controls were also included. Plates were incubated at 37 °C for 24, 48, and 72 h before the neutral red uptake assay. The neutral red uptake assay was performed as described by Repetto et al.. Briefly, the medium from all wells was discarded, the attached cells were washed with 100 µL PBS, and then 100 µL of neutral red working solution in medium (40 µg/mL) was added to each well. The neutral red solution was incubated overnight in the same conditions as the cells and centrifuged before being added to the cells. The plates were incubated for at least 2 h at 37 °C, 5% CO2, in a humidified atmosphere. Next, the neutral red medium was removed, and the cells were washed with 100 µL PBS. A 100 µL quantity of destain solution consisting of 50% ethanol, 1% glacial acetic acid, and deionized water was added to each well. Plates were incubated for 30 min with constant shaking on a horizontal shaker at 37 °C. Absorption was measured at 540 nm excitation. The cells’ viability was calculated by comparing results from experimental sets with negative controls according to the formula: % viability=ODtest substance−ODblind/ODnegative control−ODblind×100

The test system of another data set is A172. The experiment in a line: Neutral red uptake assay on A172. The data set is classed as cell-based, human. The conditions noted are these: A172, 72 h treatment. On the procedure: as §1
The next data set concerns A172 cells. Nature of the data set: Flow cytometry FDA/PI staining, cell viability, A172. The data set is classed as cell-based, human. On the procedure: A detailed analysis of potential cytotoxic mechanisms has been performed only for the selected compound (4b) where the IC50 values under 100 µM were detected in the screening NR assay. Flow cytometry was performed on the A172 and AGS cell lines. Cells were incubated with compound 4b at IC50 for 24, 48, and 72 h before analysis. Fluorescein diacetate (FDA) and propidium iodide (PI) were used as indicators for viable and nonviable (necrotic) cells. Most of the events were captured in the first and the fourth quadrant, which represent viable and necrotic cells, respectively. […] Similar results were obtained for the AGS cell line (Figure 8B), where the viability was 60.95%/55.10%/44.99% after the same incubation periods, respectively. Some events occurred in the second quadrant, but it was difficult to unequivocally categorize them into viable or nonviable (apoptotic/necrotic) cell populations, and thus more sensitive dyes, able to distinguish between the types of cell death, were needed.
Two approaches for flow cytometry were used—FDA/PI staining to determine cell viability and annexin V/PI staining for cell death pathway determination.
For cell viability determination, cells were plated in 6-well plates at a density of 1 × 10^5 cells/well and incubated for 24 h at 37 °C, 5% CO2 and in a humidified atmosphere. Next, cells were treated with 4b at a concentration calculated as IC50 in neutral red uptake assay. After 24, 48, and 72 h incubation, the cells (either adhered or floating) were collected, centrifuged at 1600 rpm, and washed with PBS. FDA and PI stock solution at a 1 mM concentration were prepared in DMSO and H2O, respectively. After centrifugation and supernatant discarding, cells were stained with FDA at a final concentration of 1 µM prepared in PBS and incubated in the dark. After 15 min, they were centrifuged at 1600 rpm, resuspended in ice-cold PBS, and placed on ice. Samples were stained with 1 µM PI for 2 min before the cytometry evaluation. […]

A further data set concerns AGS cell line. Nature of the data set: Comet assay (single-cell gel electrophoresis), AGS. Format: cell-based, human. On the procedure:
Single-cell gel electrophoresis was performed to assess the potential genotoxic effect on AGS and A172 after incubation with compound 4b at IC50. This method is based on the ability of damaged DNA to migrate out of the cell during electrophoresis. After DNA staining (Hoechst 33342), the characteristic “comet tail” could be observed under the fluorescence microscope. The damages in 100 randomly selected cells were visually classified into five groups according to the length of the “comet tail”. Group 0 consisted of cells without damaged DNA, while group 4 contained cells with maximally long tails. Based on this, a group damage index (DI) was calculated. The genotoxic effect was found in both examined cell lines. […]
The comet assay was performed according to the method of Singh et al. with slight modifications. […] A total of 100 randomly selected cells were scored, and captured comets were classified based on the comet’s tail length as follows: class 0 contained comets with no damaged DNA; class 1, those with low damage; class 2, those with medium damage; class 3, those with high damage; and class 4, those with very high damage. The damage index (DI) was calculated as follows: DI=0×n0+1×n1+2×n2+3×n3+4×n4, n0,1,2,3,4 —the amount of comets in each class.

With `Cc1nc(-c2ccccc2)nc(Nc2ccc(F)cc2)c1C=Nc1cccc(Cl)c1` [compound 4b, 5-{[(3-chlorophenyl)imino]methyl}-N-(4-fluorophenyl)-6-methyl-2-phenylpyrimidin-4-amine], the IC50 in the data set on HeLa is more than 100 µM; with A172, 63.4 µM; in the data set on A172 (Homo sapiens, A 172, 72 h), 63.4 µM. Also, the “Q1 events (viable cells; viability), FDA/PI” value in the data set with A172 cells (A172, at IC50, 24 h) turned out to be 59.32%; in the data set on A172 cells (A172, at IC50, 48 h), 50.98%; in the data set on A172 cells (A172, at IC50, 72 h), 43.88%. Moreover, the DNA damage index with AGS cell line (at IC50, 24 h) came out at 63 arbitrary units; in the data set with AGS cell line (at IC50, 48 h), 107 arbitrary units.

These data come from PMC10889512, “Pyrimidine Schiff Bases: Synthesis, Structural Characterization and Recent Studies on Biological Activities” (International Journal of Molecular Sciences, 2024).
